Results on two compounds are retold here after US10226471B2, “Modified-release dosage forms of 5-HT2C agonists useful for weight management” (Arena Pharmaceuticals, Inc., priority 2010, dated 2019).

This data set can be described thus: Dynamic moisture-sorption (DMS). Type of data set: physicochemical. As to conditions: for hygroscopicity by DMS: isotherm 25° C. The method, then: Dynamic moisture-sorption (DMS) studies were conducted using a dynamic moisture-sorption analyzer, VTI Corporation, SGA-100, equipment #0228. Samples were prepared for DMS analysis by placing 5 mg to 20 mg of a sample in a tared sample holder. The sample was placed on the hang-down wire of the VTI balance. A drying step was run, typically at 40° C. and 0.5-1% RH for 1-2 h. The isotherm temperature is 25° C. Defined % RH holds typically ranged from 10% RH to 90% RH or 95% RH, with intervals of 10 to 20% RH. A % weight change smaller than 0.010% over a specified number of minutes (typically 10-20), or up to 2 h, whichever occurs first, is required before continuing to the next % RH hold. The water content of the sample equilibrated as described above was determined at each % RH hold.

The mark [1] stands for this setting: out to and including the 90% RH hold at 25° C.

`C[C@H]1CNCCc2ccc(Cl)cc21.C[C@H]1CNCCc2ccc(Cl)cc21.O=S(=O)(O)c1cccc2c(S(=O)(=O)O)cccc12` [Compound 1 heminapadisilate salt]: the “hygroscopicity by DMS” value is listed as “non-hygroscopic”. Besides, under setting [1], the “DMS weight gain at 90% RH” value is reported as “about 0.68%”. Moreover, the “DMS weight gain at 90% RH” value (out to and including the 90% RH hold at 25° C., Form I) is on record as “FIG. 31: ~0.68% weight gain at about 90% RH”.
As to `C[C@H]1CNCCc2ccc(Cl)cc21.C[C@H]1CNCCc2ccc(Cl)cc21.Cl.Cl.O`, the “hygroscopicity by DMS” value is “substantially non-hygroscopic”. For the setting “listed as Compound 1 Hydrochloride Salt Hemihydrate, Form III”, the “hygroscopicity by DMS” value is listed as “FIG. 4: non-hygroscopic”. For the same compound, the “water adsorbed in DMS” value under setting [1] was “less than 0.5 wt %”.
